Data on 13 compounds can be found in patent US12350383B2, “Cationic lipids containing silicon” (ARBUTUS BIOPHARMA CORPORATION, priority 2018, dated 2025).

This assay deals with human EPO expression. The assay is described as follows: In vivo assay: human EPO expression in plasma after IV injection of LNP containing human EPO mRNA (human EPO ELISA). Set-up: species or system female Balb/C mice. The conditions noted are these: 0.5 mg/kg LNP with human EPO mRNA, 4 h post dosing, Balb/C mice plasma (n = 4-5), cationic lipid at 55 mol %, 1.6 mol % PEG2000-C-DMA, 33% cholesterol, 11% DSPC. As for the experimental part: Lipid stocks were prepared (about 7 mg/mL total lipid content) in 100% ethanol, using the lipid identities and molar ratios described. The mRNA was diluted in acetate pH 5 and nuclease-free water to reach a concentration of 0.366 mg/mL mRNA in 100 mM acetate pH 5. Equal volumes of each solution were blended at 400 mL/min in a T-connector, and diluted with about 4 volumes of PBS, pH 7.4, using the direct dilution method described in U.S. Pat. No. 9,404,127. Formulations were then placed in Slide-A-Lyzer dialysis units (MWCO 10,000) and were dialyzed overnight 10 mM Tris, 500 mM NaCl pH 8 (Tris/NaCl buffer). Following dialysis the formulations were concentrated to about 0.6 mg/mL using VivaSpin concentrator units (MWCO 100,000) and then filtered through a 0.2 um syringe filter.
The various lipids of the present invention were formulated in LNP compositions with the following molar ratios: DSPC (11%):Chol (33%):PEG2000-C-DMA (1.6%):Lipid X (55%). A composition was generated comprising the following components: • (a) nucleic acid; • (b) a mixture of cholesterol and DSPC; • (c) a conjugated lipid of formula: […]
Generally, the LNP were injected intravenously at 0.5 mg/kg to female Balb/C mice, 5-8 weeks old and blood was collected at 4-6 hours post dosing; blood is collected into K2EDTA and processed to plasma, then stored frozen at −80° C. until analysis. Activity was assayed by testing the plasma for human EPO expression using an human EPO ELISA kit either from StemCell (catalogue #01630) or R&D Systems (catalogue DEP00) following the manufacturer's instructions.
For orientation: In an ELISA, binding on a coated surface is turned into a signal by an enzyme label.
As to `CCCCC/C=C\CCCO[Si](CCCCN1CCC(CO)CC1)(OCCC/C=C\CCCCC)OCCC/C=C\CCCCC` [Example 9], the EPO was found to be 37927 mU/mL.
With `C=C(C)C1CC=C(CO[Si](CCCCN(C)C)(OCC2=CCC(C(=C)C)CC2)OCC2=CCC(C(=C)C)CC2)CC1` (stereo not shown) [Example 23], the EPO stood at 17488 mU/mL.
The compound `CCCCCCCCCCO[Si](CCCCN(C)C)(OCCCCCCCCCC)OCCCCCCCCCC` [Example 11] registered an EPO of 256974 mU/mL.
In the case of `CCCCC/C=C\CCCO[Si](CCCCCN(C)C)(OCCC/C=C\CCCCC)OCCC/C=C\CCCCC` [Example 20] it was 2242992 mU/mL; in that of `CCCCC/C=C\CCCO[Si](CCCCCCN(C)C)(OCCC/C=C\CCCCC)OCCC/C=C\CCCCC` [Example 21], 1470419 mU/mL.
The value for `CN(C)CCCC[Si](OCC12CC3CC(CC(C3)C1)C2)(OCC12CC3CC(CC(C3)C1)C2)OCC12CC3CC(CC(C3)C1)C2` [Example 17] was 226593 mU/mL.
In the case of `CCCCCCC(CCCC)CO[Si](CCCCN(C)C)(OCC(CCCC)CCCCCC)OCC(CCCC)CCCCCC` (stereo not shown) [Example 19] it was 47218 mU/mL; in that of `CCCCC/C=C\CCCC(CCC/C=C\CCCCC)O[Si](CCCCN1CCC(CO)CC1)(OC(CCC/C=C\CCCCC)CCC/C=C\CCCCC)OC(CCC/C=C\CCCCC)CCC/C=C\CCCCC` [Example 15], 18385 mU/mL.
As for `CCCCC/C=C\CCCC(CCC/C=C\CCCCC)CO[Si](CCCN(C)C)(OCC(CCC/C=C\CCCCC)CCC/C=C\CCCCC)OCC(CCC/C=C\CCCCC)CCC/C=C\CCCCC` [Example 22], the EPO came out at 15075 mU/mL.
`CCCCC/C=C\CCCO[Si](CCCN(C)C)(OCCC/C=C\CCCCC)OCCC/C=C\CCCCC` [Example 2] came in with an EPO of 144176 mU/mL.
In the case of `CCCCC/C=C\CCCO[Si](CCCCN(C)C)(OCCC/C=C\CCCCC)OCCC/C=C\CCCCC` [Example 4] it was 1300807 mU/mL.
In the case of `CCCCCCCCCO[Si](CCCN(C)C)(OCCCCCCCCC)OCCCCCCCCC` [Example 6] it was 25596 mU/mL; in that of `CCCCC/C=C\CCCO[Si](CCCCN(C)CCO)(OCCC/C=C\CCCCC)OCCC/C=C\CCCCC` [Example 8], 30446 mU/mL.
